Laboratory results as given in patent US6114310A, “Efflux pump inhibitors” (priority 1998, dated 2000).

System: Pseudomonas aeruginosa PAM1001
Assay: microbe, parasite or virus in culture
Type: cell-based
Description: The activity of efflux pump inhibitors (EPI) in combination with fluoroquinolones, such as levofloxacin, is assessed by the checkerboard assay (Antimicrobial Combinations. In Antibiotics in Laboratory Medicine, Ed. Victor Lorian, M. D., Fourth edition, 1996, pp 333-338) using broth microdilution method performed as recommended by the NCCLS (National Committee for Clinical Laboratory Standards (NCCLS). 1997. Methods for Dilution of Antimicrobial Susceptibility Tests for Bacteria That Grow Aerobically--Fourth Edition; Approved Standard. NCCLS Document M7-A4, Vol 17 No.2). The test organism used is Pseudomonas aeruginosa PAM1001.
In this assay, multiple dilutions of two drugs, namely the EPI and levofloxacin, are being tested, alone and in combination, at concentrations equal to, above and below their respective minimal inhibitory concentrations (MICs).
Stock solutions are further diluted, according to the needs of a particular assay, in Mueller Hinton Broth (MHB). Stock solution can be stored at -80° C. Quinolones are solubilized according to the instructions of the manufacturers, at a concentration of 1 mg/ml. They are then further diluted in MHB. Stock solution can be stored at -80° C.
The checkerboard assay is performed in microtiter plates. Levofloxacin is diluted in the x axis, each column containing a single concentration of levofloxacin. The EPI is diluted in the y axis, each row containing an equal concentration of EPI. The result of these manipulations is that each well of the microtiter plate contains a unique combination of concentrations of the two agents. Each EPI are tested independently.
The assay is performed in MHB with a final bacterial inoculum of 5×10^5 CFU/ml (from an early-log phase culture). Microtiter plates are incubated during 20 h at 35° C. and are read using a microtiterplate reader (Molecular Devices) at 650 nm as well as visual observation using a microtiterplate reading mirror.

[1] = Table 1, EPI Conc. μg/ml (number not given; column between 10 and 40 μg/ml)
[2] = Table 2, EPI Conc. μg/ml (number not given; column between 10 and 40 μg/ml)

| Compound | Levofloxacin MIC Against P. aeruginosa PAM1001 in Presence of Efflux Pump Inhibitor (EPI), Minimum Inhibitory Concentration (Table 1, EPI Conc. 0 μg/ml) [µg/mL] | Levofloxacin MIC Against P. aeruginosa PAM1001 in Presence of Efflux Pump Inhibitor (EPI), Minimum Inhibitory Concentration (Table 1, EPI Conc. 0.625 μg/ml) [µg/mL] | Levofloxacin MIC Against P. aeruginosa PAM1001 in Presence of Efflux Pump Inhibitor (EPI), Minimum Inhibitory Concentration (Table 1, EPI Conc. 5 μg/ml) [µg/mL] | Levofloxacin MIC Against P. aeruginosa PAM1001 in Presence of Efflux Pump Inhibitor (EPI), Minimum Inhibitory Concentration (Table 1, EPI Conc. 10 μg/ml) [µg/mL] | Levofloxacin MIC Against P. aeruginosa PAM1001 in Presence of Efflux Pump Inhibitor (EPI), Minimum Inhibitory Concentration (Table 1, EPI Conc. 40 μg/ml) [µg/mL] | Levofloxacin MIC Against P. aeruginosa PAM1001 in Presence of Efflux Pump Inhibitor (EPI), Minimum Inhibitory Concentration [1] [µg/mL] | Levofloxacin MIC Against P. aeruginosa PAM1001 in Presence of Efflux Pump Inhibitor (EPI), Minimum Inhibitory Concentration (Table 2, EPI Conc. 0 μg/ml) [µg/mL] | Levofloxacin MIC Against P. aeruginosa PAM1001 in Presence of Efflux Pump Inhibitor (EPI), Minimum Inhibitory Concentration (Table 2, EPI Conc. 0.625 μg/ml) [µg/mL] | Levofloxacin MIC Against P. aeruginosa PAM1001 in Presence of Efflux Pump Inhibitor (EPI), Minimum Inhibitory Concentration (Table 2, EPI Conc. 5 μg/ml) [µg/mL] | Levofloxacin MIC Against P. aeruginosa PAM1001 in Presence of Efflux Pump Inhibitor (EPI), Minimum Inhibitory Concentration (Table 2, EPI Conc. 40 μg/ml) [µg/mL] | Levofloxacin MIC Against P. aeruginosa PAM1001 in Presence of Efflux Pump Inhibitor (EPI), Minimum Inhibitory Concentration (Table 2, EPI Conc. […]) [µg/mL] | Levofloxacin MIC Against P. aeruginosa PAM1001 in Presence of Efflux Pump Inhibitor (EPI), Minimum Inhibitory Concentration [2] [µg/mL] | also measured |
| --- | --- | --- | --- | --- | --- | --- | --- | --- | --- | --- | --- | --- | --- |
| 4-(O-Methylcarboxyamido)phenylalanyl-Nα -methylornithine 2-naphthylamide [Compound 32 (Table 1)] | 4 | 4 | 0.50 | 0.125 | 0.06 | 0.06 | 4 | 4 | 2 | 0.03 | 4 | 0.25 | Levofloxacin MIC Against P. aeruginosa PAM1001 in Presence of Efflux Pump Inhibitor (EPI), Minimum Inhibitory Concentration (Table 2, EPI Conc. 10 μg/ml): 0.50 µg/mL |
| NCCCC(N)C(=O)N(CCCc1ccccc1)CCC(=O)Nc1ccc2ccccc2c1 (stereo not drawn) [Compound 21 (Table 3), Omithyl-β-(N-phenylpropyl)alanine 2-naphthylamide] | 4 | 4 | 1 | 1 | 0.25 | 0.50 | 4 | 4 | 2 | 0.03 | 4 | 0.03 | Levofloxacin MIC Against P. aeruginosa PAM1001 in Presence of Efflux Pump Inhibitor (EPI), Minimum Inhibitory Concentration (Table 3, EPI Conc. 0 μg/ml): 4 µg/mL; Levofloxacin MIC Against P. aeruginosa PAM1001 in Presence of Efflux Pump Inhibitor (EPI), Minimum Inhibitory Concentration (Table 3, EPI Conc. 0.625 μg/ml): 4 µg/mL; Levofloxacin MIC Against P. aeruginosa PAM1001 in Presence of Efflux Pump Inhibitor (EPI), Minimum Inhibitory Concentration (Table 3, EPI Conc. 5 μg/ml): 0.03 µg/mL; Levofloxacin MIC Against P. aeruginosa PAM1001 in Presence of Efflux Pump Inhibitor (EPI), Minimum Inhibitory Concentration (Table 3, EPI Conc. 10 μg/ml): 0.03 µg/mL; Levofloxacin MIC Against P. aeruginosa PAM1001 in Presence of Efflux Pump Inhibitor (EPI), Minimum Inhibitory Concentration (Table 3, EPI Conc. […]): 2 µg/mL; Levofloxacin MIC Against P. aeruginosa PAM1001 in Presence of Efflux Pump Inhibitor (EPI), Minimum Inhibitory Concentration (Table 3, EPI Conc. μg/ml (number not given; column between 10 and 40 μg/ml)): 0.06 µg/mL; Levofloxacin MIC Against P. aeruginosa PAM1001 in Presence of Efflux Pump Inhibitor (EPI), Minimum Inhibitory Concentration (Table 4, EPI Conc. 0 μg/ml): 4 µg/mL; Levofloxacin MIC Against P. aeruginosa PAM1001 in Presence of Efflux Pump Inhibitor (EPI), Minimum Inhibitory Concentration (Table 4, EPI Conc. 0.625 μg/ml): 4 µg/mL; Levofloxacin MIC Against P. aeruginosa PAM1001 in Presence of Efflux Pump Inhibitor (EPI), Minimum Inhibitory Concentration (Table 4, EPI Conc. 5 μg/ml): 0.50 µg/mL; Levofloxacin MIC Against P. aeruginosa PAM1001 in Presence of Efflux Pump Inhibitor (EPI), Minimum Inhibitory Concentration (Table 4, EPI Conc. 40 μg/ml): 0.015 µg/mL; Levofloxacin MIC Against P. aeruginosa PAM1001 in Presence of Efflux Pump Inhibitor (EPI), Minimum Inhibitory Concentration (Table 4, EPI Conc. […]): 4 µg/mL; Levofloxacin MIC Against P. aeruginosa PAM1001 in Presence of Efflux Pump Inhibitor (EPI), Minimum Inhibitory Concentration (Table 4, EPI Conc. μg/ml (number not given; column between 10 and 40 μg/ml)): 0.015 µg/mL |
